Reference: patent publication US9492471B2, “Methods of treating a disease or disorder associated with Bruton'S Tyrosine Kinase” (Celgene Avilomics Research, Inc., priority 2013, dated 2016)
Read-outs that look alike come from different tables or passages of the source.

Key:
Experiment in all cases: HotSpot kinase profiling
Type in all cases: biochemical
[1] = biological target: T1, HGK/MAP4K4 (Homo sapiens, UniProt O95819)
T1 construct: purchased Reaction Biology Corp
Outline: (§1)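 Activity is measured by radiolabel transfer captured on P81 filters after a 2 h room-temperature reaction of kinase, substrate and cofactors. Values are percent inhibition against DMSO.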

[2] = biological target: T2, SRPK1 (Homo sapiens, UniProt Q96SB4)
T2 construct: purchased Reaction Biology Corp
Outline: as §1

[3] = biological target: T3, CDK4/cyclin D1 (Homo sapiens, UniProt P11802)
T3 construct: purchased Reaction Biology Corp
Outline: as §1

[4] = biological target: T4, PKN3/PRK3 (Homo sapiens, UniProt Q6P5Z2)
T4 construct: purchased Reaction Biology Corp
Outline: as §1

[5] = biological target: T5, ALK6/BMPR1B (Homo sapiens, UniProt O00238)
T5 construct: purchased Reaction Biology Corp
Outline: as §1

[6] = biological target: T6, MEKK1 (Homo sapiens, UniProt Q13233)
T6 construct: purchased Reaction Biology Corp
Outline: as §1

[7] = biological target: T7, CK1g1 (Homo sapiens, UniProt Q9HCP0)
T7 construct: purchased Reaction Biology Corp
Outline: as §1

[8] = biological target: T8, TNK1 (Homo sapiens, UniProt Q13470)
T8 construct: purchased Reaction Biology Corp
T8 sequence (Q13470 1-666): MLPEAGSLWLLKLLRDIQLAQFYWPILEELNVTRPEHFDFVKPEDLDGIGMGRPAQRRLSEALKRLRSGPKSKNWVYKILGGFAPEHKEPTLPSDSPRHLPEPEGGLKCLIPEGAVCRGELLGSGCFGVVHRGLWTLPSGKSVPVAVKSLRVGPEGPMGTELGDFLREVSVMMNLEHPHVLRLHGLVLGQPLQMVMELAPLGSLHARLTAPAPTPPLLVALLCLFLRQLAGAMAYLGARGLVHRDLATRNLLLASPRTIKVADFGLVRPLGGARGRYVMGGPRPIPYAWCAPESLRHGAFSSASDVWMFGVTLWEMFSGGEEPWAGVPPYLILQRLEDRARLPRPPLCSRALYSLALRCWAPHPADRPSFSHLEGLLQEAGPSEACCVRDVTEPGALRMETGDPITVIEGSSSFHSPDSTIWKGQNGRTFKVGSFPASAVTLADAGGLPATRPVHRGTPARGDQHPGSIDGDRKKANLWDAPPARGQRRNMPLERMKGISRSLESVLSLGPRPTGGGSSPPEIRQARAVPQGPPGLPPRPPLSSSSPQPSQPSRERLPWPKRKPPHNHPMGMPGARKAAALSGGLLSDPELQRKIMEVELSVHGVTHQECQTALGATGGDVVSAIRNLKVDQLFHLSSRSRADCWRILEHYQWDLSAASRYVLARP
Outline: as §1

[9] = biological target: T9, ZAK/MLTK (Homo sapiens, UniProt Q9NYL2)
T9 construct: purchased Reaction Biology Corp
Outline: as §1

[10] = biological target: T10, SIK1 (Homo sapiens, UniProt P57059)
T10 construct: purchased Reaction Biology Corp
Outline: as §1

[11] = biological target: T11, PKCzeta (Homo sapiens, UniProt Q05513)
T11 construct: purchased Reaction Biology Corp
T11 sequence (Q05513 1-592): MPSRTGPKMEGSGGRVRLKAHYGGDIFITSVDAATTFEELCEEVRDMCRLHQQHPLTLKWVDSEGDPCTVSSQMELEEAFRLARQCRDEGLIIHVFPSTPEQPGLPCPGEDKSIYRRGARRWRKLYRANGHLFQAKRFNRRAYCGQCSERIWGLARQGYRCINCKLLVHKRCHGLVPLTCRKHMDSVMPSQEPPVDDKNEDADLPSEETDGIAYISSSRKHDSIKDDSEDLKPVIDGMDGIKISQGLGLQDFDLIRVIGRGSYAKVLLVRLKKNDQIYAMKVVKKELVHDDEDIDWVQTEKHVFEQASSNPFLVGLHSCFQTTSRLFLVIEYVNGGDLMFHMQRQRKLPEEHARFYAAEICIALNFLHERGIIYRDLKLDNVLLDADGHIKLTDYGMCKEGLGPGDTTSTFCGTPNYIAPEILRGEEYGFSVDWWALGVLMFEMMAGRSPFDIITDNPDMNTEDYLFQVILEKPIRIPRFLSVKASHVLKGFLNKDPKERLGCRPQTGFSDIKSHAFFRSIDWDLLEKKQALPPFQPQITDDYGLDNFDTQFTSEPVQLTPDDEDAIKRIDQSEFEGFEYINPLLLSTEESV
Outline: as §1

[12] = biological target: T12, PDGFRa (Homo sapiens, UniProt P16234)
T12 construct: purchased Reaction Biology Corp
Outline: as §1

[13] = biological target: T13, RIPK3 (Homo sapiens, UniProt Q9Y572)
T13 construct: purchased Reaction Biology Corp
Outline: as §1

[14] = read-out: % Enzyme Activity (relative to DMSO controls) Run 1
[15] = read-out: % Enzyme Activity (relative to DMSO controls) Run 2

T6 sequence (Q13233 whole entry): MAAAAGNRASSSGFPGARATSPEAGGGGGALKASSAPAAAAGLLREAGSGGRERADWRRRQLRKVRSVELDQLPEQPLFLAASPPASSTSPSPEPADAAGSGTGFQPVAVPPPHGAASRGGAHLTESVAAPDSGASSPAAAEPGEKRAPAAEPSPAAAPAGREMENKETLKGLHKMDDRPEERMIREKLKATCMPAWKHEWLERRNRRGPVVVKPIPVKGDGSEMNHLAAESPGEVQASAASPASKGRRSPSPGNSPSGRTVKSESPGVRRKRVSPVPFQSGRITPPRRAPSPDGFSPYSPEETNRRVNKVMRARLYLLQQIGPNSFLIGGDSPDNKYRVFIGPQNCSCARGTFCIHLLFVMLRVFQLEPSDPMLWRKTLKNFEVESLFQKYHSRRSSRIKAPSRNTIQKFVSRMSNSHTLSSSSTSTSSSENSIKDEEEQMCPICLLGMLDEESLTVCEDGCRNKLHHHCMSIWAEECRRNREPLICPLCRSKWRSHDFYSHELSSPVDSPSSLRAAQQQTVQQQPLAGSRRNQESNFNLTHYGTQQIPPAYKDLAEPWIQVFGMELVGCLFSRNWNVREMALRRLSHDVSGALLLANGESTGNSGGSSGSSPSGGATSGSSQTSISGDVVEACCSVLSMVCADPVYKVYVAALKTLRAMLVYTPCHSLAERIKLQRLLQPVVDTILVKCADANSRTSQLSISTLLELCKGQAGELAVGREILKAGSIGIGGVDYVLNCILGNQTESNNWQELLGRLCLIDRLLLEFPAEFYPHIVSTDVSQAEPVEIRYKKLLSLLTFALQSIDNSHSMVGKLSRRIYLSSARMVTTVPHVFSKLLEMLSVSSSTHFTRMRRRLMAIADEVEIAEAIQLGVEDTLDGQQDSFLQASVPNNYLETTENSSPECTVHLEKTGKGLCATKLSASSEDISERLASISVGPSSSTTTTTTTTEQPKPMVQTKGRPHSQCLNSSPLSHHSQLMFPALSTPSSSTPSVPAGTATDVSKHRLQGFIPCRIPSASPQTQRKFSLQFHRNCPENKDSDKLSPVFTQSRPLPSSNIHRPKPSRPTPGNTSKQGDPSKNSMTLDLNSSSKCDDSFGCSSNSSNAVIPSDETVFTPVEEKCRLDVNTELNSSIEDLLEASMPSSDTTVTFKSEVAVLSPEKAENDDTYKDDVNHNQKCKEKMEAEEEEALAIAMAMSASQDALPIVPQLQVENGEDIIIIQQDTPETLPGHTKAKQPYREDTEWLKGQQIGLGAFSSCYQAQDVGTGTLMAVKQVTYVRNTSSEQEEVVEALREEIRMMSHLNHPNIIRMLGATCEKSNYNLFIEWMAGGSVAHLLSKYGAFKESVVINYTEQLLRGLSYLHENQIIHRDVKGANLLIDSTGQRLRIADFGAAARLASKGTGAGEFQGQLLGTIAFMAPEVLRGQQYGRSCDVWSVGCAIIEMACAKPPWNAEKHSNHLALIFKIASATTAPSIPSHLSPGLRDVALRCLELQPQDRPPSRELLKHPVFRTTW
T7 sequence (Q9HCP0 whole entry): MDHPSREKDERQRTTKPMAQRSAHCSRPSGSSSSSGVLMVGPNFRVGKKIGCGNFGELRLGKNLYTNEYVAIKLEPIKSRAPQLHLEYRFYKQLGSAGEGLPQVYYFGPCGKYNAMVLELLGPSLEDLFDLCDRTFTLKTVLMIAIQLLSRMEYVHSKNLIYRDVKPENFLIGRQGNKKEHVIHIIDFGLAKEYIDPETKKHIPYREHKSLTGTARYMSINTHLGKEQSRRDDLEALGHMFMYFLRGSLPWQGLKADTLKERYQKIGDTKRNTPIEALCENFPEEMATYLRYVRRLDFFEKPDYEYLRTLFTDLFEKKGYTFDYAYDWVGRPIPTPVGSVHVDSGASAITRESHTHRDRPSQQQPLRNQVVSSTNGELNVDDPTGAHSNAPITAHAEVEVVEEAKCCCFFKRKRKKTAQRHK
T9 sequence (Q9NYL2 whole entry): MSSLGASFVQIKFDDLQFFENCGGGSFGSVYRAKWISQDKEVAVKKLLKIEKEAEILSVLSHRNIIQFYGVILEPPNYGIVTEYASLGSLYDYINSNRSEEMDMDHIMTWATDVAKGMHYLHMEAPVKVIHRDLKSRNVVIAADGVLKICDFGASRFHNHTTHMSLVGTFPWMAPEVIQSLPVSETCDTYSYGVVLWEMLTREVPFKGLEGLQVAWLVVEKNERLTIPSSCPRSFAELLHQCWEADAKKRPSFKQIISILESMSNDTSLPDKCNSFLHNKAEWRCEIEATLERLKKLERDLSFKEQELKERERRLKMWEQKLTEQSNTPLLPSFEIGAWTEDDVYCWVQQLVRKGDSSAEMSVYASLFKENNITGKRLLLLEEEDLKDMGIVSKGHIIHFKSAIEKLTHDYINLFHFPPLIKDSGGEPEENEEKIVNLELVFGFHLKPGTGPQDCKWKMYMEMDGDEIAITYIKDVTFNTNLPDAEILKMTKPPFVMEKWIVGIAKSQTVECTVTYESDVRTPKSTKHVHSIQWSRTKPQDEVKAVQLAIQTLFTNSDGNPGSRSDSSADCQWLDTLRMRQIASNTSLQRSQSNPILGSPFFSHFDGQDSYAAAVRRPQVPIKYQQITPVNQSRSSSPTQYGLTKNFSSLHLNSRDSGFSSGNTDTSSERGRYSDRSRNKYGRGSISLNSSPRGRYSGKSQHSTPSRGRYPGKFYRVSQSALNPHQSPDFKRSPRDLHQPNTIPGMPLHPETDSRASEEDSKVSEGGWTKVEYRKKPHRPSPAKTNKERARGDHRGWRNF
T13 sequence (Q9Y572 whole entry): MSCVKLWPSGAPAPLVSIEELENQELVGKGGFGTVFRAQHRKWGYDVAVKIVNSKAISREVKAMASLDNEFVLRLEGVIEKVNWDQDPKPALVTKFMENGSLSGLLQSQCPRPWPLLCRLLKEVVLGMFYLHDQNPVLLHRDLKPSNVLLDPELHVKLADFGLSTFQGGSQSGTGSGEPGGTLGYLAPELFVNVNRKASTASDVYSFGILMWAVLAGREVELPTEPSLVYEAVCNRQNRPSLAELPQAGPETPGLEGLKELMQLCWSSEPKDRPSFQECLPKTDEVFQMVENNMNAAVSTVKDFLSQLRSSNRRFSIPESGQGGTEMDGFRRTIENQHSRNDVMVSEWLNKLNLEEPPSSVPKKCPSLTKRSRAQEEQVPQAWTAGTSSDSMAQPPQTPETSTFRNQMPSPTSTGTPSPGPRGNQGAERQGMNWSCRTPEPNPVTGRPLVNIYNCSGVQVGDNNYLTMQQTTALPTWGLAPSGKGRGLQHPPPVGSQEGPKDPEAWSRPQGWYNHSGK
T1 sequence (O95819 whole entry): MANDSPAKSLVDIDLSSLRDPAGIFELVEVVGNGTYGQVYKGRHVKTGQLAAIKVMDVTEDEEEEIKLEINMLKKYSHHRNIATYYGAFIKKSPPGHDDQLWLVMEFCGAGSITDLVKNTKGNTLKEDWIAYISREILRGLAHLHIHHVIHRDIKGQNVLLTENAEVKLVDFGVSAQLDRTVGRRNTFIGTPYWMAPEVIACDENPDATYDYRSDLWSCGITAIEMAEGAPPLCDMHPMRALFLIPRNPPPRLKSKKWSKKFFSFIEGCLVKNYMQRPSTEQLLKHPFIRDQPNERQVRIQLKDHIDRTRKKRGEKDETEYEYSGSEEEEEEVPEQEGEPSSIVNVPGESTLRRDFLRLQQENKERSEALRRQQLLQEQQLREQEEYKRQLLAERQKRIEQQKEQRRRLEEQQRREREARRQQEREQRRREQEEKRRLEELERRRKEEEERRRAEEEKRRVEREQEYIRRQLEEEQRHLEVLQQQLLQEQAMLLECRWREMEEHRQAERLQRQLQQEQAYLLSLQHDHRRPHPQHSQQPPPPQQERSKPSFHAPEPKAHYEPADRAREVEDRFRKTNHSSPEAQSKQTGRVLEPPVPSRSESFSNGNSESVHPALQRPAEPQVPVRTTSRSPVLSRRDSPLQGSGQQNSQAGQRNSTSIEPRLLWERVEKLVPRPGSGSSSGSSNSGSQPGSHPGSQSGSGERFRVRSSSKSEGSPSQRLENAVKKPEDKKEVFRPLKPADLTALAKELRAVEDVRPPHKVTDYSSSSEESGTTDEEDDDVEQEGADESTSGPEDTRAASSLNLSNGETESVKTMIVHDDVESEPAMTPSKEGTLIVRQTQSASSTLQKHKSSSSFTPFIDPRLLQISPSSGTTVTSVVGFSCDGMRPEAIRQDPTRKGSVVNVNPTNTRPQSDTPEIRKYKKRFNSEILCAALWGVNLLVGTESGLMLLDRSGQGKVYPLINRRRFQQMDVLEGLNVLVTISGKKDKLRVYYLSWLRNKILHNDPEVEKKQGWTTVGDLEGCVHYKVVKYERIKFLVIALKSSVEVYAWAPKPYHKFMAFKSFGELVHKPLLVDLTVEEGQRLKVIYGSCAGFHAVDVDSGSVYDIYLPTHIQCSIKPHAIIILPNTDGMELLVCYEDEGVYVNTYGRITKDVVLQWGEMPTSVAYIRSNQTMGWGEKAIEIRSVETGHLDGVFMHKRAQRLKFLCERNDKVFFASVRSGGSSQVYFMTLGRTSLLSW
T5 sequence (O00238 14-502): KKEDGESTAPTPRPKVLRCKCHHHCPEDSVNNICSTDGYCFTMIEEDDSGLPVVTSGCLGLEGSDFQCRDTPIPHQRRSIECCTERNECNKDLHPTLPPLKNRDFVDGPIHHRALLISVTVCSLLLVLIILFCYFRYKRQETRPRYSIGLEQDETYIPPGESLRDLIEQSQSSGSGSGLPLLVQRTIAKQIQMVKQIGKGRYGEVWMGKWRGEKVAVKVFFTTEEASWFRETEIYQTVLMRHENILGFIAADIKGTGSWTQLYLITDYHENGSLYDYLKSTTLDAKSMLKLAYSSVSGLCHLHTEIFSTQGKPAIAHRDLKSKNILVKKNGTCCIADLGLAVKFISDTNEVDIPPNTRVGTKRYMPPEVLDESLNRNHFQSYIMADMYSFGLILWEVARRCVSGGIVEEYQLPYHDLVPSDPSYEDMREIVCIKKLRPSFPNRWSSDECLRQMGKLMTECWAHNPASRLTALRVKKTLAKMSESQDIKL

**Q.** What does the source list for C=CC(=O)Nc1cccc(Nc2nc(Nc3ccc(OCCOC)c(F)c3)ncc2F)c1 [Compound 2]?
**A.** inhibition at 3 µM [1]: 1.27%; remaining activity at 3 µM [1, 14]: 98.9%; remaining activity at 3 µM [1, 15]: 98.6%; inhibition at 3 µM [2]: 2.23%; remaining activity at 3 µM [2, 14]: 98.8%; remaining activity at 3 µM [2, 15]: 96.7%; inhibition at 3 µM [3]: 4.07%; remaining activity at 3 µM [3, 14]: 95.6%; remaining activity at 3 µM [3, 15]: 96.3%; inhibition at 3 µM [4]: -7.32%; remaining activity at 3 µM [4, 14]: 106%; remaining activity at 3 µM [4, 15]: 108%; inhibition at 3 µM [5]: -80.4%; remaining activity at 3 µM [5, 14]: 177%; remaining activity at 3 µM [5, 15]: 184%; inhibition at 3 µM [6]: -14.7%; remaining activity at 3 µM [6, 14]: 113%; remaining activity at 3 µM [6, 15]: 117%; inhibition at 3 µM [7]: 10.5%; remaining activity at 3 µM [7, 14]: 88.8%; remaining activity at 3 µM [7, 15]: 90.3%; inhibition at 3 µM [8]: 83.7%; remaining activity at 3 µM [8, 14]: 15.9%; remaining activity at 3 µM [8, 15]: 16.6%; inhibition at 3 µM [9]: 15.7%; remaining activity at 3 µM [9, 14]: 83.7%; remaining activity at 3 µM [9, 15]: 85%; inhibition at 3 µM [10]: 51.4%; remaining activity at 3 µM [10, 14]: 48.4%; remaining activity at 3 µM [10, 15]: 48.7%; inhibition at 3 µM [11]: 2.52%; remaining activity at 3 µM [11, 14]: 99.8%; remaining activity at 3 µM [11, 15]: 95.2%; inhibition at 3 µM [12]: 36.6%; remaining activity at 3 µM [12, 14]: 63.9%; remaining activity at 3 µM [12, 15]: 62.8%; inhibition at 3 µM [13]: -18.8%; remaining activity at 3 µM [13, 14]: 117%; remaining activity at 3 µM [13, 15]: 121%
